Reference: patent publication US8329678B1, “Antiinflammatory compound” (priority 2011, dated 2012)

Columns and labels:
[1] = test system: PHA-activated T-cell proliferation; experiment: PHA-activated T-cell proliferation assay (3H-thymidine incorporation); format: cell-based, human
Protocol: The T-cell proliferation assay was performed as described by Nielson et al. (19). In this assay, isolated lymphocytes were stimulated by adding the phytohemagglutinin (PHA) in culture. The rate of proliferation and survival was measured by radiolabelled thymidine incorporation method. The lymphocytes were isolated as described by Boyum (20). A 50 μL of cell suspension (10^6/mL) was added to each well of a 96-well round bottom tissue culture plate. 50 μL of PHA was added in each well from the working solution (20 μg/mL) to have final concentration 5 μg/mL. The final volume was adjusted to 200 μL in each well by adding complete RPMI media. The plates were incubated at 37° C. for 72 hours (90% humidity, 5% CO2/air). Methyl-^3H thymidine (Amersham Pharmacia Biotech) 0.5 μCi was added in each well and incubated for further 18 hours. Cells were harvested on a filter mat (Type G-7) using cell harvester (INOTECH IH-280, Switzerland) and the radioactivity (CPM) was measured using a β-scintillation counter (LS 6500, Beckman Coulter, USA). (FIG. 2A)

[2] = test system: IL-2 production from peripheral blood mononuclear cells; experiment: IL-2 cytokine production by PHA-activated PBMC (ELISA); format: cell-based, human
Protocol: IL-2 cytokine was produce from peripheral blood mononuclear cells (PBMC). IL-2 cytokine production by PHA activated cells in the presence or absence of test compounds was studied by ELISA using the human cytokine kit (Diaclone, Besancon Cedex France). Briefly, freshly prepared mononuclear cells (10^5/well) were cultured in 96-well microtiter flat bottom plate in the presence or absence of 5 μg/mL PHA. Four different concentrations (10.33-331.13 μM/mL) of compounds, along with PHA, were used in this assay. The culture plate was incubated at 37° C. for 18 h. Then the supernatant was collected and analyzed for IL-2 cytokine production following kit manufacturer instructions.

[3] = test system: human lung cancer cell line (NCI-H460); experiment: Sulforhodamine B (SRB) growth inhibition assay; format: cell-based; conditions: for TGI (μM), could not be determined: NCI-H460, maximum dose 100 μM
Protocol: The sulforhodamine B (SRB) protein-staining assay was employed for measurement of in vitro growth inhibition and cytotoxicity (21) The appropriate cell density (cells/well) of NCI-H460 cells (1×10^4) was added in 96-well plates. The cell density used was dependent on the doubling time of the cell line leading to the formation of monolayer. After 24 h incubation, different doses of Compounds 1-3 were added and incubated for further 48 h. This was followed by fixation of cells with ice-cold trichloroacetic acid (50 μl, 50%) at room temperature for 30 min. The plates were carefully washed five times with distilled water, and left for overnight drying in air. Sulforhodamine B dye (100 μl, 0.4% in 1% acetic acid) was introduced in each well and after 30 min residual dye was removed using acetic acid (1%) and air-dried overnight. The bound SRB dye was solubilized in Tris-base solution (100 μl, 10 mM) with gentle shaking on a plate-shaker for 5 min prior to optical density (OD) measurements at 545 nm in a plate reader. Drug concentrations causing growth inhibition (GI50) of 50% cells were calculated from dose response curves and total growth inhibition of Compound 2 was also evaluated.

[4] = test system: whole blood phagocytes; experiment: Luminol-enhanced chemiluminescence oxidative burst assay, whole blood; format: cell-based, human
Text: (§1) Heparinized blood was obtained by vein puncture aseptically from healthy volunteers (25-38 years age). The buffy coat containing PMNs was collected by dextran sedimentation and the cells were isolated after the LSM density gradient centrifugation from the tube base. Cells were washed twice and suspended in Hank's Balance Salt Solution (Ca^2+ and Mg^2+ free) (HBSS^−−), pH 7.4. Neutrophils were purified from RBCs contamination using hypotonic solution. Cells were adjusted to their required concentration using Hank's Balance Salt Solution containing Ca^2+ and Mg^2+ (HBSS++)
(§2) Luminol-enhanced chemiluminescence assay was performed as described by Helfand et al. (17), and Haklar et al. (18) with some modifications. Briefly, 25 μL diluted whole blood (1:200 dilution in sterile HBSS^++) or 25 μL of PMNs (1×10^6) cells were incubated with 25 μL of serially diluted compounds with concentration ranges between 3.2-50 mg/mL. Tests were performed in white 96-well plates, which were incubated at 37° C. for 30 minutes in the thermostated chamber of the luminometer. Opsonized zymosan-A, 25 μL, followed by 25 μL luminol (7×10^−5M) along with HBSS^++ was added to each well to obtain a 100 μL volume/well. […] Chemiluminescence peaks were recorded with the Luminometer. Results were monitored as chemiluminescence relative light units (RLU) with peak and total integral values.

[5] = test system: isolated polymorphoneutrophils (PMNs); experiment: Luminol-enhanced chemiluminescence oxidative burst assay, isolated PMNs; format: cell-based, human
Text: as §1, §2

Structure (SMILES) | effect on T-cell proliferation [1] | effect on IL-2 production [2] | anticancer activity against NCI-H460 [3] | TGI (μM), could not be determined [3] | effect on ROS production, whole blood phagocytes [4] | effect on ROS production, isolated neutrophils [5] | growth inhibition of cancer cells at 100 μM ([3]; 100 μM)
C[C@]12C=CC(=O)C=C1CC[C@@H]1[C@@H]2CC[C@@]2(C)[C@H]1CC[C@]2(C)O [Compound 1, dianabol, reference compound] | did not show any significant effect | did not show any significant effect | showed anticancer activity | ND (Values could not be determined indicates <50% inhibition of cell growth at maximum dose (100 μM) tested.) | – | – | –
C[C@]12C=CC(=O)C[C@@H]1CC[C@@H]1[C@@H]2CC[C@@]2(C)[C@H]1CC[C@]2(C)O [Compound 2, 17β-hydroxy-17α-methyl-5α-androst-1-en-3-one] | – | – | showed anticancer activity | – | did not result in any significant effect | did not result in any significant effect | –
C[C@]12CCC(=O)C[C@@H]1CC[C@@H]1[C@@H]2CC[C@@]2(C)[C@H]1CC[C@]2(C)O [Compound 3, 17β-hydroxy-17α-methyl-5α-androstan-3-one] | moderate inhibitory activity | moderate inhibitory activity | non-active | ND (Values could not be determined indicates <50% inhibition of cell growth at maximum dose (100 μM) tested.) | did not result in any significant effect | did not result in any significant effect | not able to inhibit considerable growth
